This passage reports EC50 and first-phase pharmacokinetic half-life results from patent US20250100960A1, “NAPHTHALENE AND QUINOLINE ANALOGS AS RXFP1 AGONISTS” (BRISTOL-MYERS SQUIBB COMPANY, priority 2021, published 2025).

For series [1], the target named is T1, human RXFP1 (Homo sapiens, UniProt Q9HBX9).
T1 construct: expressed in transfected cells; host or cells: HEK293
T1 sequence (Q9HBX9 1-757): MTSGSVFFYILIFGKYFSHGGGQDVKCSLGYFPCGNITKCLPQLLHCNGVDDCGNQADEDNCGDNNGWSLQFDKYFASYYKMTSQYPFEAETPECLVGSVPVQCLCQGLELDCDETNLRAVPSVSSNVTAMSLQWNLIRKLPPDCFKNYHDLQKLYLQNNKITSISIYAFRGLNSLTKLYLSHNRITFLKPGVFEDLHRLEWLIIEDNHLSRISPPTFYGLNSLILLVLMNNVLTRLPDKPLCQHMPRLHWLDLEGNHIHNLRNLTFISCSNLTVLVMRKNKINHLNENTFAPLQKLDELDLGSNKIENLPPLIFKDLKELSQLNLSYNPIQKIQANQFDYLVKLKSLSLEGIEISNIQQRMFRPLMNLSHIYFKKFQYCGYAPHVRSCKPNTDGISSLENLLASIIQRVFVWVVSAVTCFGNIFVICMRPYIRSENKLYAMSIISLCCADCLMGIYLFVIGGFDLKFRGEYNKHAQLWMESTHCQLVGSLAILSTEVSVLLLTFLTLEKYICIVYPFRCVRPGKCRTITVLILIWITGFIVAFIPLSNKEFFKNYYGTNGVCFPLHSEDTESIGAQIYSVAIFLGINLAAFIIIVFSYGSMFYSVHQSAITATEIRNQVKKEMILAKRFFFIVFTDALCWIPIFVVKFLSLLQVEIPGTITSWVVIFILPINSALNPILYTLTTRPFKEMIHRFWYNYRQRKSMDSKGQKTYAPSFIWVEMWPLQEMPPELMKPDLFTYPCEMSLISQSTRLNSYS
The series can be described thus: hRXFP1 HEK293 cAMP assay. The format is cell-based. The conditions noted are these: HEK293 cells stably expressing human RXFP1; intracellular cAMP by HTRF; 30 min at room temperature. The method, then:
RXFP1 Cyclic Adenosine Monophosphate (cAMP) Assays. Human embryonic kidney cells 293 (HEK293) cells and HEK293 cells stably expressing human RXFP1, were cultured in MEM medium supplemented with 10% qualified FBS, and 300 μg/ml hygromycin (Life Technologies). Cells were dissociated and suspended in assay buffer. The assay buffer was HBSS buffer (with calcium and magnesium) containing 20 mM HEPES, 0.05% BSA, and 0.5 mM IBMX. Cells (3000 cells per well, except 1500 cell per well for HEK293 cells stably expressing human RXFP1) were added to 384-well Proxiplates (Perkin-Elmer). Cells were immediately treated with test compounds in DMSO (2% final) at final concentrations in the range of 0.010 nM to 50 μM. Cells were incubated for 30 min at room temperature. The level of intracellular cAMP was determined using the HTRF HiRange cAMP assay reagent kit (Cisbio) according to manufacturer's instructions. Solutions of cryptate conjugated anti-cAMP and d2 fluorophore-labelled cAMP were made in a supplied lysis buffer separately. Upon completion of the reaction, the cells were lysed with equal volume of the d2-cAMP solution and anti-cAMP solution. After a 1 h room temperature incubation, time-resolved fluorescence intensity was measured using the Envision (Perkin-Elmer) at 400 nm excitation and dual emission at 590 nm and 665 nm. A calibration curve was constructed with an external cAMP standard at concentrations ranging from 2.7 μM to 0.1 μM by plotting the fluorescent intensity ratio from 665 nm emission to the intensity from the 590 nm emission against cAMP concentrations. The potency and activity of a compound to […] cAMP production was then determined by fitting to a 4-parametric logistic equation from a plot of cAMP level versus compound concentrations.
The examples disclosed below were tested in the human RXFP1 (hRXFP1) HEK293 cAMP assay described above and found to have agonist activity. Tables 1-3, lists EC50 values in the hRXFP1 HEK293 cAMP assay measured for the examples.
For orientation: Cyclic AMP is a second messenger, typically raised through Gs and lowered through Gi signalling.

The conditions of series [2]: intravenous (IV) formulation; cited from earlier work.

Usually EC50 stands for the concentration needed to bring the measured effect to its halfway point. A higher EC50 goes with a need for much substance. Consider `COc1ccc(-n2ncccc2=O)cc1C(=O)Nc1cc2ccccc2cc1C(=O)Nc1ccc(F)c(C(F)(F)F)c1` [Example 12, N-(4-fluoro-3-(trifluoromethyl)phenyl)-3-(2-methoxy-5-(6-oxopyridazin-1(6H)-yl)benzamido)-2-naphthamide], for which, in series [1], the EC50 amounted to 1400 nM.
The same measure, in the same setting: then `COc1ccc(-c2cc([C@H](OC(=O)NC3CCC3)C(F)(F)F)ccc2F)cc1C(=O)Nc1cc2ccccc2cc1C(=O)Nc1ccc(F)c(C(F)(F)F)c1` [Example 5, (S)-2,2,2-trifluoro-1-(6-fluoro-3′-((3-((4-fluoro-3-(trifluoromethyl)phenyl)carbamoyl)-naphthalen-2-yl)carbamoyl)-4′-methoxy-[1,1′-biphenyl]-3-yl)ethyl cyclobutylcarbamate], with 11 nM.
With Serelaxin, the first-phase pharmacokinetic half-life in series [2] was 5.4 min.
In series [1], `COc1ccc(-c2cc(C(=O)O)ccc2F)cc1C(=O)Nc1cc2ccc(Br)cc2cc1C(=O)Nc1ccc(F)c(C(F)(F)F)c1` [Example 8, 3′-((6-bromo-3-((4-fluoro-3-(trifluoromethyl)phenyl)carbamoyl)naphthalen-2-yl)carbamoyl)-6-fluoro-4′-methoxy-[1,1′-biphenyl]-3-carboxylic acid] registered an EC50 of 2600 nM.
Still for that read-out and setting: with `COc1ccc(-c2cc(C(O)C(=O)O)ccc2F)cc1C(=O)Nc1cc2ccccc2cc1C(=O)Nc1ccc(F)c(C(F)(F)F)c1` (single isomer, unassigned) [Example 4, 2-(6-fluoro-3′-((3-((4-fluoro-3-(trifluoromethyl)phenyl)carbamoyl)naphthalen-2-yl)carbamoyl)-4′-methoxy-[1,1′-biphenyl]-3-yl)-2-hydroxyacetic acid] the figure was 490 nM.
Regarding `COc1ccc(C#C[C@H](C)O)cc1C(=O)Nc1cc2ccccc2cc1C(=O)Nc1ccc(F)c(C(F)(F)F)c1` [Example 10, (S)—N-(4-fluoro-3-(trifluoromethyl)phenyl)-3-(5-(3-hydroxybut-1-yn-1-yl)-2-methoxybenzamido)-2-naphthamide], the response in series [1] was half-maximal at 5000 nM (EC50).
On the same count and under the same terms, then `COc1ccc(-c2cc(C(NC(=O)C3CCOCC3)C(=O)O)ccc2F)cc1C(=O)Nc1cc2cc(Br)c(Br)cc2cc1C(=O)Nc1ccc(F)c(C(F)(F)F)c1` (stereo not drawn) [Example 3, 2-(3′-((6,7-dibromo-3-((4-fluoro-3-(trifluoromethyl)phenyl)-carbamoyl)naphthalen-2-yl)carbamoyl)-6-fluoro-4′-methoxy-[1,1′-biphenyl]-3-yl)-2-(tetrahydro-2H-pyran-4-carboxamido)acetic acid], with 190 nM; and `COc1ccc(-c2cc(C(NC(=O)C3CCOCC3)C(=O)O)ccc2F)cc1C(=O)Nc1cc2ccccc2cc1C(=O)Nc1ccc(F)c(C(F)(F)F)c1` (stereo not drawn) [Example 2, 2-(6-fluoro-3′-((3-((4-fluoro-3-(trifluoromethyl)phenyl)carbamoyl)naphthalen-2-yl)carbamoyl)-4′-methoxy-[1,1′-biphenyl]-3-yl)-2-(tetrahydro-2H-pyran-4-carboxamido)acetic acid], with 4.2 nM; and `COc1ccc(C2=NOC3CC(O)CC23)cc1C(=O)Nc1cc2ccccc2cc1C(=O)Nc1ccc(F)c(C(F)(F)F)c1` (single isomer, unassigned) [Example 15, N-(4-fluoro-3-(trifluoromethyl)phenyl)-3-(5-(5-hydroxy-3a,5,6,6a-tetrahydro-4H-cyclopenta[d]isoxazol-3-yl)-2-methoxybenzamido)-2-naphthamide], with 190 nM.
Same read-out and setting: then `COc1ccc(S(=O)(=O)CCCO)cc1C(=O)Nc1cc2ccccc2cc1C(=O)Nc1ccc(F)c(C(F)(F)F)c1` [Example 9, N-(4-fluoro-3-(trifluoromethyl)phenyl)-3-(5-((3-hydroxypropyl)sulfonyl)-2-methoxybenzamido)-2-naphthamide], with 4800 nM.
On the same count and under the same terms, with `COc1ccc(N2CCCS2(=O)=O)cc1C(=O)Nc1cc2ccccc2cc1C(=O)Nc1ccc(F)c(C(F)(F)F)c1` [Example 11, 3-(5-(1,1-dioxidoisothiazolidin-2-yl)-2-methoxybenzamido)-N-(4-fluoro-3-(trifluoromethyl)-phenyl)-2-naphthamide] the figure was 2000 nM; with `COc1ccc(-c2cc(C(=O)O)ccc2F)cc1C(=O)Nc1cc2ccccc2cc1C(=O)Nc1ccc(F)c(C(F)(F)F)c1` [Example 1, 6-fluoro-3′-((3-((4-fluoro-3-(trifluoromethyl)phenyl)carbamoyl)naphthalen-2-yl)carbamoyl)-4′-methoxy-[1,1′-biphenyl]-3-carboxylic acid], 1100 nM; with `COc1ccc(C2=NOC3CC(CO)CC23)cc1C(=O)Nc1cc2ccccc2cc1C(=O)Nc1ccc(F)c(C(F)(F)F)c1` (single isomer, unassigned) [Example 13, N-(4-fluoro-3-(trifluoromethyl)phenyl)-3-(5-(5-(hydroxymethyl)-3a,5,6,6a-tetrahydro-4H-cyclopenta[d]isoxazol-3-yl)-2-methoxybenzamido)-2-naphthamide], 320 nM.
In the case of `COc1ccc(-c2cc(C(=O)O)ccc2F)cc1C(=O)Nc1cc2c(Br)cccc2cc1C(=O)Nc1ccc(F)c(C(F)(F)F)c1` [Example 6, 3′-((8-bromo-3-((4-fluoro-3-(trifluoromethyl)phenyl)carbamoyl)naphthalen-2-yl)carbamoyl)-6-fluoro-4′-methoxy-[1,1′-biphenyl]-3-carboxylic acid], a half-maximal effect in series [1] (EC50) was put at 1300 nM.
Still for that read-out and setting: then `COc1ccc(C2=NOC3CC(CO)CC23)cc1C(=O)Nc1cc2ccccc2cc1C(=O)Nc1ccc(F)c(C(F)(F)F)c1` (single isomer, unassigned) [Example 14, N-(4-fluoro-3-(trifluoromethyl)phenyl)-3-(5-(5-(hydroxymethyl)-3a,5,6,6a-tetrahydro-4H-cyclopenta[d]isoxazol-3-yl)-2-methoxybenzamido)-2-naphthamide], with 60 nM.
